Holding throughout (assay type): in vivo
For one data set, the system named is Echinochloa crusgalli. The experiment in a line: Test Example 3 paddy field treatment. The following applies: active ingredient 1 kg per hectare, index 0-5. The gist of the method:
(§1)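 Weed seeds sown in puddled paddy soil under 4 cm water, with two-leaf Koshihikari rice transplanted; 10 days later a wettable powder was applied to the water surface at 1 kg active ingredient/ha. Scored 21 days after application on a 0–5 scale (0 = <10%, 5 = ≥90% herbicidal effect or phytotoxicity).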

For another data set, the system named is Scirpus juncoides. The experiment in a line: Test Example 3 paddy field treatment. As to conditions: active ingredient 1 kg per hectare, index 0-5. The procedure, abridged:
as §1

The next data set relates to Ammannia multiflora. As to the kind of experiment: Test Example 3 paddy field treatment. As to conditions: active ingredient 1 kg per hectare, index 0-5. The gist of the method: as §1
The next data set deals with Monochoria vaginalis. As to the kind of experiment: Test Example 3 paddy field treatment. As to conditions: active ingredient 1 kg per hectare, index 0-5. The procedure, abridged: as §1
Another data set deals with Rice (Oryza sativa). The experiment in a line: Test Example 3 paddy field treatment, crop phytotoxicity. As to conditions: active ingredient 1 kg per hectare, index 0-5; for Herbicidal activity OS (phytotoxicity to rice): paddy field treatment, transplanted rice Koshihikari, wettable powder, 21st day after the dropping. The procedure, abridged:
as §1

The subject of data set [1] is Setaria viridis. The experiment in a line: Test Example 2 upland soil treatment. The following applies: Table 5, upland soil treatment, index 0-5. The procedure, abridged: (§2)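 Visual 0–5 grading of herbicidal effect or phytotoxicity, made 21 days after a single pre-emergence soil-surface application at 1 kg a.i./ha.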
In data set [2] the test system is Chenopodium album. As to the kind of experiment: Test Example 2 upland soil treatment. The following applies: Table 5, upland soil treatment, index 0-5. The procedure, abridged: as §2
For data set [3], the system named is Stellaria media. The experiment in a line: Test Example 2 upland soil treatment. The following applies: Table 5, upland soil treatment, index 0-5. The procedure, abridged:
as §2

For data set [4], the system named is Digitaria adscendens. As to the kind of experiment: Test Example 2 upland soil treatment. The following applies: Table 5, upland soil treatment, index 0-5. The gist of the method: as §2
Data set [5] deals with wheat (Triticum aestivum). As to the kind of experiment: Test Example 1 upland field foliage treatment, crop phytotoxicity. The following applies: Table 4, upland field foliage treatment, index 0-5. The procedure, abridged: (§3)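 Scores are visual 0–5 ratings of herbicidal effect or crop injury (0: under 10%; 5: 90% or more) taken 21 days after treatment. Plants grew from seed in upland soil for 14 days, then foliage received the compound as a water-diluted wettable powder at 1 kg/ha active ingredient.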

The test system of data set [6] is soybean (Glycine max). Described as above. As to conditions: Table 4, upland field foliage treatment, index 0-5. The procedure, abridged:
as §3

Data set [7] deals with Setaria viridis. The experiment in a line: Test Example 1 upland field foliage treatment. The following applies: Table 4, upland field foliage treatment, index 0-5. The gist of the method:
as §3

Data set [8] concerns Chenopodium album. The experiment in a line: Test Example 1 upland field foliage treatment. As to conditions: Table 4, upland field foliage treatment, index 0-5. The gist of the method: as §3
Data set [9] deals with Stellaria media. As to the kind of experiment: Test Example 1 upland field foliage treatment. As to conditions: Table 4, upland field foliage treatment, index 0-5. The procedure, abridged: as §3
Data set [10] relates to Digitaria adscendens. As to the kind of experiment: Test Example 1 upland field foliage treatment. The following applies: Table 4, upland field foliage treatment, index 0-5. The gist of the method:
as §3

For data set [11], the system named is wheat (Triticum aestivum). The experiment in a line: Test Example 2 upland soil treatment, crop phytotoxicity. The following applies: Table 5, upland soil treatment, index 0-5. The gist of the method: as §2
Data set [12] deals with soybean (Glycine max). The description is as above. As to conditions: Table 5, upland soil treatment, index 0-5. The procedure, abridged: as §2
Where [13] appears, read: paddy field treatment, wettable powder, 21st day after the dropping.
The mark [14] stands for this setting: Table 6, paddy field treatment, 21st day after dropping.

For `CNC(=O)C(Cn1cc(C)c(-c2ccc(Cl)cc2)n1)=NOC` [Compound 47], in the data set on Echinochloa crusgalli (setting [13]), the “Herbicidal activity EC” value is listed as 5 (herbicidal effect of not less than 90%, or phytotoxicity of 90% or more). Besides, in the data set on Scirpus juncoides (setting [13]), the “Herbicidal activity SJ” value is 5 (herbicidal effect of not less than 90%, or phytotoxicity of 90% or more). Further, the “Herbicidal activity AM” value in the data set on Ammannia multiflora (setting [13]) is recorded as 5 (herbicidal effect of not less than 90%, or phytotoxicity of 90% or more). For the same compound, in the data set with Monochoria vaginalis (setting [13]), the “Herbicidal activity MV” value is reported as 5 (herbicidal effect of not less than 90%, or phytotoxicity of 90% or more). In the data set with Rice (Oryza sativa), the “Herbicidal activity OS (phytotoxicity to rice)” value is 0 (herbicidal effect of not less than 0% and less than 10%, or phytotoxicity of 0% or more and less than 10%). For the same compound, the “Herbicidal activity SV: Setaria viridis” value in the data set on Setaria viridis [1] is given as 5 (herbicidal effect of not less than 90%, or phytotoxicity of 90% or more); with Setaria viridis [7], 5 (herbicidal effect of not less than 90%, or phytotoxicity of 90% or more). The “Herbicidal activity CA: Chenopodium album” value (from here on “Herbicidal activity CA”) with Chenopodium album [2] is recorded as 5 (herbicidal effect of not less than 90%, or phytotoxicity of 90% or more); in the data set on Chenopodium album [8], 5 (herbicidal effect of not less than 90%, or phytotoxicity of 90% or more). For the same compound, the “Herbicidal activity SM: Stellaria media” value was 5 (herbicidal effect of not less than 90%, or phytotoxicity of 90% or more) with Stellaria media [3] and 5 (herbicidal effect of not less than 90%, or phytotoxicity of 90% or more) in the data set with Stellaria media [9]. For the same compound, the “Herbicidal activity DA: Digitaria adscendens” value (“Herbicidal activity DA” for short) in the data set with Digitaria adscendens [4] is listed as 5 (herbicidal effect of not less than 90%, or phytotoxicity of 90% or more); in the data set on Digitaria adscendens [10], 5 (herbicidal effect of not less than 90%, or phytotoxicity of 90% or more). The “Herbicidal activity (phytotoxicity) TA: Wheat (Triticum aestivum)” value (shortened to “Herbicidal activity (phytotoxicity) TA”) in data set [5] is 0 (herbicidal effect of not less than 0% and less than 10%, or phytotoxicity of 0% or more and less than 10%); in data set [11] it was 0 (herbicidal effect of not less than 0% and less than 10%, or phytotoxicity of 0% or more and less than 10%). The “Herbicidal activity (phytotoxicity) GM: Soybean (Glycine max)” value (from here on “Herbicidal activity (phytotoxicity) GM”) with soybean (Glycine max) [6] is 0 (herbicidal effect of not less than 0% and less than 10%, or phytotoxicity of 0% or more and less than 10%); in the data set with soybean (Glycine max) [12], 0 (herbicidal effect of not less than 0% and less than 10%, or phytotoxicity of 0% or more and less than 10%).
On to `CNC(=O)C(Cn1cc(C)c(-c2ccc(Oc3ccccc3)cc2)n1)=NOC` [Compound 53], for which the “Herbicidal activity EC” value with Echinochloa crusgalli (setting [13]) is on record as 5 (herbicidal effect of not less than 90%, or phytotoxicity of 90% or more). In addition, the “Herbicidal activity SJ” value in the data set with Scirpus juncoides (setting [13]) is given as 5 (herbicidal effect of not less than 90%, or phytotoxicity of 90% or more). Besides, in the data set on Ammannia multiflora (setting [13]), the “Herbicidal activity AM” value is listed as 5 (herbicidal effect of not less than 90%, or phytotoxicity of 90% or more). For the same compound, the “Herbicidal activity MV” value in the data set on Monochoria vaginalis (setting [13]) is given as 5 (herbicidal effect of not less than 90%, or phytotoxicity of 90% or more). In the data set on Rice (Oryza sativa), the “Herbicidal activity OS (phytotoxicity to rice)” value is 0 (herbicidal effect of not less than 0% and less than 10%, or phytotoxicity of 0% or more and less than 10%). Besides, the “Herbicidal activity SV: Setaria viridis” value with Setaria viridis [1] is 3 (herbicidal effect of not less than 50% and less than 70%, or phytotoxicity of 50% or more and less than 70%); in the data set with Setaria viridis [7] it was 4 (herbicidal effect of not less than 70% and less than 90%, or phytotoxicity of 70% or more and less than 90%). The “Herbicidal activity CA” value in the data set on Chenopodium album [2] is 4 (herbicidal effect of not less than 70% and less than 90%, or phytotoxicity of 70% or more and less than 90%); with Chenopodium album [8], 5 (herbicidal effect of not less than 90%, or phytotoxicity of 90% or more). Further, the “Herbicidal activity SM: Stellaria media” value was 4 (herbicidal effect of not less than 70% and less than 90%, or phytotoxicity of 70% or more and less than 90%) with Stellaria media [3]; 4 (herbicidal effect of not less than 70% and less than 90%, or phytotoxicity of 70% or more and less than 90%) in the data set with Stellaria media [9]. Moreover, the “Herbicidal activity DA” value in the data set on Digitaria adscendens [4] was 5 (herbicidal effect of not less than 90%, or phytotoxicity of 90% or more); in the data set with Digitaria adscendens [10], 5 (herbicidal effect of not less than 90%, or phytotoxicity of 90% or more). For the same compound, the “Herbicidal activity (phytotoxicity) TA” value in data set [5] was 0 (herbicidal effect of not less than 0% and less than 10%, or phytotoxicity of 0% or more and less than 10%); in data set [11], 0 (herbicidal effect of not less than 0% and less than 10%, or phytotoxicity of 0% or more and less than 10%). Moreover, the “Herbicidal activity (phytotoxicity) GM” value in the data set on soybean (Glycine max) [6] was 0 (herbicidal effect of not less than 0% and less than 10%, or phytotoxicity of 0% or more and less than 10%); in the data set with soybean (Glycine max) [12], 0 (herbicidal effect of not less than 0% and less than 10%, or phytotoxicity of 0% or more and less than 10%).
Turning to `CNC(=O)C(Cn1cc(C)c(-c2ccc(F)cc2F)n1)=NOC` [Compound 56], the “Herbicidal activity EC” value with Echinochloa crusgalli (setting [14]) is 5 (herbicidal effect of not less than 90%, or phytotoxicity of 90% or more). Besides, the “Herbicidal activity SJ” value in the data set on Scirpus juncoides (setting [14]) was 5 (herbicidal effect of not less than 90%, or phytotoxicity of 90% or more). For the same compound, the “Herbicidal activity AM” value with Ammannia multiflora (setting [14]) is 5 (herbicidal effect of not less than 90%, or phytotoxicity of 90% or more). Moreover, the “Herbicidal activity MV” value with Monochoria vaginalis (setting [14]) was 5 (herbicidal effect of not less than 90%, or phytotoxicity of 90% or more). Besides, the “Herbicidal activity (phytotoxicity) OS” value in the data set with Rice (Oryza sativa) (Table 6, paddy field treatment, transplanted rice, 21st day after dropping) was 0 (herbicidal effect of not less than 0% and less than 10%, or phytotoxicity of 0% or more and less than 10%). The “Herbicidal activity SV: Setaria viridis” value in the data set with Setaria viridis [1] is 5 (herbicidal effect of not less than 90%, or phytotoxicity of 90% or more); in the data set with Setaria viridis [7], 5 (herbicidal effect of not less than 90%, or phytotoxicity of 90% or more). The “Herbicidal activity CA” value with Chenopodium album [2] was 5 (herbicidal effect of not less than 90%, or phytotoxicity of 90% or more); in the data set on Chenopodium album [8] it was 5 (herbicidal effect of not less than 90%, or phytotoxicity of 90% or more). Further, the “Herbicidal activity SM: Stellaria media” value is 5 (herbicidal effect of not less than 90%, or phytotoxicity of 90% or more) in the data set on Stellaria media [3] and 5 (herbicidal effect of not less than 90%, or phytotoxicity of 90% or more) with Stellaria media [9]. The “Herbicidal activity DA” value with Digitaria adscendens [4] is reported as 5 (herbicidal effect of not less than 90%, or phytotoxicity of 90% or more); in the data set on Digitaria adscendens [10], 5 (herbicidal effect of not less than 90%, or phytotoxicity of 90% or more). Moreover, the “Herbicidal activity (phytotoxicity) TA” value in [5] is 0 (herbicidal effect of not less than 0% and less than 10%, or phytotoxicity of 0% or more and less than 10%); in data set [11] it was 0 (herbicidal effect of not less than 0% and less than 10%, or phytotoxicity of 0% or more and less than 10%). The “Herbicidal activity (phytotoxicity) GM” value in the data set on soybean (Glycine max) [6] is 0 (herbicidal effect of not less than 0% and less than 10%, or phytotoxicity of 0% or more and less than 10%); in the data set with soybean (Glycine max) [12], 1 (herbicidal effect of not less than 10% and less than 30%, or phytotoxicity of 10% or more and less than 30%).

For the origin of these results see patent US7192906B2, “Substituted pyrazole derivatives, production process thereof, and herbicide compositions containing the derivatives” (SDS Biotech K.K., priority 2001, dated 2007).
